The subject of one assay is MV4;11 cells. The assay can be described thus: Cell viability assay (CellTiter-Glo) in MV4;11 cells, alone or with gilteritinib. It counts as cell-based. The following applies: Homo sapiens, MV4;11 cells, three days, CellTiter-Glo, read-out: MV4.
Another assay relates to MOLM-13 cells. The assay is described as follows: Cell viability assay (CellTiter-Glo) in MOLM-13 cells, alone or with gilteritinib. Conditions: Homo sapiens, MOLM-13 cells, three days, CellTiter-Glo. It counts as cell-based.
The mark [1] stands for this setting: MV4-11, 72 h, compound alone (without gilteritinib), 11 IC50.
The mark [2] stands for this setting: MV4-11, 72 h, compound with gilteritinib 10 nM, 11 IC50 gilteritinib.
Setting [3] is: MOLM-13, 72 h, compound alone (without gilteritinib), read-out: MOLM-13 IC50.
Setting [4] is: MOLM-13, 72 h, compound with gilteritinib 20 nM, read-out: MOLM-13 IC50 gilteritinib.
[5] abbreviates: MV4-11, 72 h, with gilteritinib 10 nM, 11 IC50 gilteritinib.
The mark [6] stands for this setting: MOLM-13, 72 h, with gilteritinib 20 nM, read-out: MOLM-13 IC50 gilteritinib.

Where two headings read alike, the source gives them in different places.

As for `O=C1CCC(N2C(=O)c3ccc(NC[C@H]4C[C@H](n5cc(-c6cccnn6)c(C6CC6)n5)C4)cc3C2=O)C(=O)N1` (stereo partly drawn) [GS-597, 5-(((trans-3-(3-Cyclopropyl-4-(pyridazin-3-yl)-1H-pyrazol-1-yl)cyclobutyl)methyl)amino)-2-(2,6-dioxopiperidin-3-yl)isoindoline-1,3-dione], the IC50 is 10 to 100 nM in the assay on MV4;11 cells (setting [1]), more than 1000 nM in the assay with MV4;11 cells (setting [2]), more than 1000 nM with MOLM-13 cells (setting [3]) and 100 to 1000 nM in the assay on MOLM-13 cells (setting [4]).
With `O=C1CCC(N2C(=O)c3ccc(NCCCCC(=O)N4C5CCC4CC(n4cc(-c6cnc7ccccc7n6)cn4)C5)cc3C2=O)C(=O)N1` (stereo not drawn) [GS-136, 2-(2,6-Dioxopiperidin-3-yl)-5-((5-oxo-5-(3-(4-(quinoxalin-2-yl)-1H-pyrazol-1-yl)-8-azabicyclo[3.2.1]octan-8-yl)pentyl)amino)isoindoline-1,3-dione], the IC50 with MV4;11 cells (setting [1]), in the assay with MV4;11 cells (setting [5]), in the assay on MOLM-13 cells (setting [3]) and in the assay on MOLM-13 cells (setting [6]) was more than 1000 nM throughout.
Take `O=C1CCC(N2C(=O)c3ccc(NCCC[C@H]4C[C@@H](n5cc(-c6cnc7cc(C8CCNCC8)ccc7n6)cn5)C4)cc3C2=O)C(=O)N1` (stereo partly drawn) [GS-429, 2-(2,6-dioxopiperidin-3-yl)-5-((3-(cis-3-(4-(6-(piperidin-4-yl)quinoxalin-2-yl)-1H-pyrazol-1-yl)cyclobutyl)propyl)amino)isoindoline-1,3-dione]: the IC50 with MV4;11 cells (setting [1]) was 100 to 1000 nM; with MV4;11 cells (setting [2]), less than 10 nM; with MOLM-13 cells (setting [3]), 100 to 1000 nM; with MOLM-13 cells (setting [4]), 10 to 100 nM.
With `O=C1CCC(N2Cc3c(Nc4ccnc(Nc5ccc(N6CCC(n7cc(-c8cnc9cccc(Br)c9n8)cn7)CC6)cc5)n4)cccc3C2=O)C(=O)N1` (stereo not drawn) [GS-026, 3-(4-((2-((4-(4-(4-(8-Bromoquinoxalin-2-yl)-1H-pyrazol-1-yl)piperidin-1-yl)phenyl)amino)pyrimidin-4-yl)amino)-1-oxoisoindolin-2-yl)piperidine-2,6-dione], the IC50 in the assay on MV4;11 cells (setting [1]), in the assay with MV4;11 cells (setting [5]), with MOLM-13 cells (setting [3]) and in the assay with MOLM-13 cells (setting [6]) was more than 1000 nM each time.
As for `O=C(CNc1cccc(N2CCC(n3cc(-c4cnc5ccccc5n4)cn3)CC2)c1)NCc1scc2c1CN(C1CCC(=O)NC1=O)C2=O` (stereo not drawn) [GS-087, N-((5-(2,6-dioxopiperidin-3-yl)-4-oxo-5,6-dihydro-4H-thieno[3,4-c]pyrrol-1-yl)methyl)-2-((3-(4-(4-(quinoxalin-2-yl)-1H-pyrazol-1-yl)piperidin-1-yl)phenyl)amino)acetamide], the IC50 in the assay with MV4;11 cells (setting [1]), in the assay on MV4;11 cells (setting [5]), with MOLM-13 cells (setting [3]) and in the assay with MOLM-13 cells (setting [6]) was less than 10 nM in each case.
For `O=C1CCC(N2C(=O)c3ccc(NCCCCCCn4cc(-c5cnc6cccc(F)c6n5)cn4)cc3C2=O)C(=O)N1` (stereo not drawn) [GS-377, 2-(2,6-Dioxopiperidin-3-yl)-5-((6-(4-(8-fluoroquinoxalin-2-yl)-1H-pyrazol-1-yl)hexyl)amino)isoindoline-1,3-dione], the IC50 in the assay on MV4;11 cells (setting [1]) was 100 to 1000 nM; in the assay on MV4;11 cells (setting [5]), 10 to 100 nM; in the assay with MOLM-13 cells (setting [3]), more than 1000 nM; in the assay on MOLM-13 cells (setting [6]) it was less than 10 nM.
As for `O=C1CCC(N2C(=O)c3ccc(NCCNc4cccc(N5CCN(c6ccccn6)CC5)c4)cc3C2=O)C(=O)N1` (stereo not drawn) [GS-372, 2-(2,6-Dioxopiperidin-3-yl)-5-((2-((3-(4-(pyridin-2-yl)piperazin-1-yl)phenyl)amino)ethyl)amino)isoindoline-1,3-dione], the IC50 is 10 to 100 nM in the assay on MV4;11 cells (72 h, compound alone (without gilteritinib), 11 IC50); less than 10 nM with MV4;11 cells (72 h, with gilteritinib 10 nM, 11 IC50 gilteritinib); less than 10 nM in the assay with MOLM-13 cells (72 h, compound alone (without gilteritinib), read-out: MOLM-13 IC50); less than 10 nM in the assay with MOLM-13 cells (72 h, with gilteritinib 20 nM, read-out: MOLM-13 IC50 gilteritinib).
Turning to `O=C1CCC(N2C(=O)c3ccc(NCCC[C@H]4C[C@H](n5cc(-c6cnc7ccc(CN8CCNCC8)cc7n6)c(C6CC6)n5)C4)cc3C2=O)C(=O)N1` (stereo partly drawn) [GS-228, 5-((3-(trans-3-(3-Cyclopropyl-4-(7-(piperazin-1-ylmethyl)quinoxalin-2-yl)-1H-pyrazol-1-yl)cyclobutyl)propyl)amino)-2-(2,6-dioxopiperidin-3-yl)isoindoline-1,3-dione], the IC50 with MV4;11 cells (setting [1]), with MV4;11 cells (setting [5]), with MOLM-13 cells (setting [3]) and in the assay on MOLM-13 cells (setting [6]) was less than 10 nM throughout.
With `O=C1CCC(N2Cc3c(NC4CCCC(CCCCn5cc(-c6cnc7ccccc7n6)cn5)C4)cccc3C2=O)C(=O)N1` (stereo not drawn) [GS-142, 3-(1-Oxo-4-((3-(4-(4-(quinoxalin-2-yl)-1H-pyrazol-1-yl)butyl)cyclohexyl)amino)isoindolin-2-yl)piperidine-2,6-dione], the IC50 in the assay on MV4;11 cells (setting [1]), in the assay with MV4;11 cells (setting [5]), in the assay with MOLM-13 cells (setting [3]) and in the assay with MOLM-13 cells (setting [6]) was more than 1000 nM throughout.
As to `O=C1CCC(N2Cc3ccc(CCCC(=O)N4CCC(n5cc(-c6ccc7ccccc7n6)cn5)CC4)cc3C2=O)C(=O)N1` (stereo not drawn) [GS-159, 3-(1-Oxo-6-(4-oxo-4-(4-(4-(quinolin-2-yl)-1H-pyrazol-1-yl)piperidin-1-yl)butyl)isoindolin-2-yl)piperidine-2,6-dione], the IC50 in the assay with MV4;11 cells (setting [1]), in the assay with MV4;11 cells (setting [5]), in the assay with MOLM-13 cells (setting [3]) and in the assay on MOLM-13 cells (setting [6]) was more than 1000 nM each time.
Consider `O=C(CC1CC(N2CCC(n3cc(-c4cnc5ccccc5n4)cn3)CC2)C1)NCc1ccc2c(c1)CN(C1CCC(=O)NC1=O)C2=O` (stereo not drawn) [GS-082, N-((2-(2,6-Dioxopiperidin-3-yl)-1-oxoisoindolin-5-yl)methyl)-2-(3-(4-(4-(quinoxalin-2-yl)-1H-pyrazol-1-yl)piperidin-1-yl)cyclobutyl)acetamide], for which the IC50 in the assay with MV4;11 cells (setting [1]) is more than 1000 nM; in the assay with MV4;11 cells (setting [5]) it was 100 to 1000 nM; in the assay on MOLM-13 cells (setting [3]), more than 1000 nM; in the assay with MOLM-13 cells (setting [6]), 100 to 1000 nM.
For the compound `O=C1CCC(N2C(=O)c3ccc(NCCC[C@H]4C[C@H](n5cc(C6CCOCC6)cn5)C4)cc3C2=O)C(=O)N1` (stereo partly drawn) [GS-433, 2-(2,6-dioxopiperidin-3-yl)-5-((3-(trans-3-(4-(tetrahydro-2H-pyran-4-yl)-1H-pyrazol-1-yl)cyclobutyl)propyl)amino)isoindoline-1,3-dione], the IC50 with MV4;11 cells (setting [1]), in the assay on MV4;11 cells (setting [2]), in the assay with MOLM-13 cells (setting [3]) and in the assay on MOLM-13 cells (setting [4]) was more than 1000 nM throughout.
Turning to `O=C1CCC(N2Cc3cc(Nc4ccnc(Nc5ccc6c(c5)CC(N5CCC(n7cc(-c8cnc9ccccc9n8)cn7)CC5)C6)n4)ccc3C2=O)C(=O)N1` (stereo not drawn) [GS-073, 3-(1-Oxo-5-((2-((2-(4-(4-(quinoxalin-2-yl)-1H-pyrazol-1-yl)piperidin-1-yl)-2,3-dihydro-1H-inden-5-yl)amino)pyrimidin-4-yl)amino)isoindolin-2-yl)piperidine-2,6-dione], the IC50 with MV4;11 cells (setting [1]) was in the range of 100 to 1000 nM; with MV4;11 cells (setting [5]) it was 10 to 100 nM; in the assay on MOLM-13 cells (setting [3]), 100 to 1000 nM; in the assay on MOLM-13 cells (setting [6]), 100 to 1000 nM.
On to `O=C1CCC(N2C(=O)c3ccc(NCCCCCCNc4ncc(-c5cnc6ccccc6n5)s4)cc3C2=O)C(=O)N1` (stereo not drawn) [GS-385, 2-(2,6-Dioxopiperidin-3-yl)-5-((6-((5-(quinoxalin-2-yl)thiazol-2-yl)amino)hexyl)amino)isoindoline-1,3-dione], for which the IC50 lay in the range of 100 to 1000 nM with MV4;11 cells (setting [1]), 10 to 100 nM with MV4;11 cells (setting [5]), 100 to 1000 nM in the assay with MOLM-13 cells (setting [3]) and 10 to 100 nM with MOLM-13 cells (setting [6]).
`O=C1CCC(N2C(=O)c3ccc(NCCCN4CCC(n5cc(-c6cnc7ccccc7n6)cn5)CC4)cc3C2=O)C(=O)N1` (stereo not drawn) [GS-343]: the IC50 is more than 1000 nM in the assay with MV4;11 cells (setting [1]), more than 1000 nM with MV4;11 cells (setting [5]), 100 to 1000 nM in the assay on MOLM-13 cells (setting [3]) and 10 to 100 nM in the assay on MOLM-13 cells (setting [6]).
On to `O=C1CCC(N2C(=O)c3ccc(NC[C@H]4C[C@H](n5cc(-c6nccc7cc[nH]c67)c(C6CC6)n5)C4)cc3C2=O)C(=O)N1` (stereo partly drawn) [GS-291, 5-(((trans-3-(3-Cyclopropyl-4-(1H-pyrrolo[2,3-c]pyridin-7-yl)-1H-pyrazol-1-yl)cyclobutyl)methyl)amino)-2-(2,6-dioxopiperidin-3-yl)isoindoline-1,3-dione], for which the IC50 in the assay with MV4;11 cells (setting [1]) was more than 1000 nM; in the assay with MV4;11 cells (setting [5]), 10 to 100 nM; with MOLM-13 cells (setting [3]), more than 1000 nM; in the assay on MOLM-13 cells (setting [6]), 10 to 100 nM.
With `O=C1CCC(N2C(=O)c3ccc(NC[C@H]4C[C@H](n5cc(-c6ccncc6)c(C6CC6)n5)C4)cc3C2=O)C(=O)N1` (stereo partly drawn) [GS-265, 5-(((trans-3-(3-Cyclopropyl-4-(pyridin-4-yl)-1H-pyrazol-1-yl)cyclobutyl)methyl)amino)-2-(2,6-dioxopiperidin-3-yl)isoindoline-1,3-dione], the IC50 with MV4;11 cells (setting [1]) was more than 1000 nM; in the assay on MV4;11 cells (setting [5]), 100 to 1000 nM; with MOLM-13 cells (setting [3]) it was more than 1000 nM; with MOLM-13 cells (setting [6]), 100 to 1000 nM.
For `CC(C)n1ccc2cnc(-c3cn([C@H]4C[C@H](CNc5ccc6c(c5)C(=O)N(C5CCC(=O)NC5=O)C6=O)C4)nc3C3CC3)cc21` (stereo partly drawn) [GS-622, 5-(((trans-3-(3-Cyclopropyl-4-(1-isopropyl-1H-pyrrolo[3,2-c]pyridin-6-yl)-1H-pyrazol-1-yl)cyclobutyl)methyl)amino)-2-(2,6-dioxopiperidin-3-yl)isoindoline-1,3-dione], the IC50 in the assay with MV4;11 cells (setting [1]) is 10 to 100 nM; with MV4;11 cells (setting [2]), less than 10 nM; in the assay with MOLM-13 cells (setting [3]) it was 10 to 100 nM; in the assay on MOLM-13 cells (setting [4]), less than 10 nM.

The values above are taken from US20240050428A1 (Cullgen (Shanghai), Inc., priority 2020, published 2024).
